Measurements from article PMC12203525, “The insight into the biology of five homologous lectins produced by the entomopathogenic bacterium and nematode symbiont Photorhabdus laumondii” (Glycobiology, 2025).
Read-outs that look alike come from different tables or passages of the source.

Legend:
PLL [1] = target: T1, PLL (Photorhabdus laumondii subsp. laumondii, UniProt Q7N8J0); experiment: Isothermal titration calorimetry (ITC); assay type: binding, Photorhabdus laumondii subsp. laumondii TT01
Description: (§1) ITC experiments were performed using an Auto-ITC200 calorimeter or Automated PEAQ-ITC calorimeter (both Malvern Panalytical, Malvern, UK). Measurements were carried out at 25 °C in the Tris buffer. Before the analyses, lectins were extensively dialyzed against the Tris buffer and the dialysate was used to dissolve ligands. The protein (0.1 mM or 0.2 mM) in the cell was titrated with 2 μL injections of the ligand (20 mM or 40 mM). […] Experiments for each interacting ligand were carried out in triplicates. Integrated heat effects were evaluated by nonlinear regression using a single-site binding model in Origin 7 (OriginLab, Northampton, USA) ([Wiseman et al. 1989]). Triplicate measurements were fitted simultaneously using a global fit approach. Due to the low affinity of the interaction, the binding stoichiometry was fixed during the fitting.

PLL4 [2] = target: T2, PLL4 (Photorhabdus laumondii subsp. laumondii, UniProt Q7N8I6); experiment: Isothermal titration calorimetry (ITC); assay type: binding, Photorhabdus laumondii subsp. laumondii TT01; conditions: for KD / Kd: ITC; for interaction with the sugar in ITC (in words): PLL4
T2 sequence (Q7N8I6 entry or part of it): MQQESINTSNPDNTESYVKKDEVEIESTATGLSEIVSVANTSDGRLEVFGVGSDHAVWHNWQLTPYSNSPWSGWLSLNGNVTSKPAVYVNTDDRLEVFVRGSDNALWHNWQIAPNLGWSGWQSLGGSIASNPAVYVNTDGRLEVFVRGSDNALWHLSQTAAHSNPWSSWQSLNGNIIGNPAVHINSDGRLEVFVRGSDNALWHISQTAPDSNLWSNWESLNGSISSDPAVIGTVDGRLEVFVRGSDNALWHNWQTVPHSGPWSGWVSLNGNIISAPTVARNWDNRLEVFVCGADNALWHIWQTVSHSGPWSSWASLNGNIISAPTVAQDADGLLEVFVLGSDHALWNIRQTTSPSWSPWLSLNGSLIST
Description: as §1

PLL5 [3] = target: T3, PLL5 (Photorhabdus laumondii subsp. laumondii, UniProt Q7N8I5); experiment: Isothermal titration calorimetry (ITC); assay type: binding, Photorhabdus laumondii subsp. laumondii TT01; conditions: for KD / Kd: ITC; for interaction with the sugar in ITC (in words): PLL5
T3 sequence (Q7N8I5 entry or part of it): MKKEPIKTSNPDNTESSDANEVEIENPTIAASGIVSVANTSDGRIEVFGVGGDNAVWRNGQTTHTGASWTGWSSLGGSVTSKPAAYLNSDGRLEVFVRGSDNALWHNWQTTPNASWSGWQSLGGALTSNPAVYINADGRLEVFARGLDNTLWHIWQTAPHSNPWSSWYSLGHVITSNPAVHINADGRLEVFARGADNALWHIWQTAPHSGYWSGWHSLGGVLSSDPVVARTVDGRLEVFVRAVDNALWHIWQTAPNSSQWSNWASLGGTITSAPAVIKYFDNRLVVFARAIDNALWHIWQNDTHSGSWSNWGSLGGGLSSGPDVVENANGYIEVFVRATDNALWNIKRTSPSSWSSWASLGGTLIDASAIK
Description: as §1

PLL2 [4] = test system: PLL2; parameters: method as in Faltinek et al. 2019; Fujdiarová et al. 2021; conditions: inhibition of PLL2 binding to immobilized MGMR, ref Faltinek et al. 2019, Fujdiarová et al. 2021, cited from earlier work
PLL3 [5] = test system: PLL3; parameters: method as in Faltinek et al. 2019; Fujdiarová et al. 2021; conditions: inhibition of PLL3 binding to immobilized MGMR, ref Faltinek et al. 2019, Fujdiarová et al. 2021, cited from earlier work
PLL2 [6] = target: PLL2; parameters: method as in Fujdiarová et al, 2021, Faltinek et al, 2019; conditions: ref Fujdiarová et al, 2021, Faltinek et al, 2019, cited from earlier work; for Kd: ITC; for interaction with the sugar in ITC (in words): PLL2
PLL3 [7] = target: PLL3; parameters: method as in Fujdiarová et al, 2021, Faltinek et al, 2019; conditions: ref Fujdiarová et al, 2021, Faltinek et al, 2019, cited from earlier work; for Kd: ITC; for interaction with the sugar in ITC (in words): PLL3
PLL [8] = target: T1, PLL; experiment: SPR inhibition assay on the MGMR channel; parameters: species or system Photorhabdus laumondii subsp. laumondii TT01; conditions: inhibition of PLL (250 nM) binding to immobilized MGMR
Description: (§2) SPR experiments were carried out on BIAcore T200 or BIAcore S200 instruments (GE Healthcare, UK). Sugar moieties were immobilized on the chip surface using the standard procedures according to the manufacturer’s instructions. Measurements with immobilized MGMR were performed on the chip prepared previously (high-density chip) ([Fujdiarová et al. 2021]). Measurements with immobilized α-L-fucose were performed on the streptavidin chip (GE Healthcare, UK). Biotinylated α-L-fucose was immobilized on channel 2 to yield a final response of 29 RU, unmodified channel 1 was used as a control.
(§3) Measurements were performed in Tris buffer with the addition of 0.05% Tween 20 at a flow rate of 30 μl/min at 25 °C. […] 50 mM NaOH for 30 s (flow 30 μl/min) was used for chip regeneration. To determine KDs (app) towards MGMR, 2-fold dilution series of lectins was used (PLL: 0.048 – 50 μM, PLL4: 0.008 - 2 μM; PLL5: 1.9 – 500 nM). The data were evaluated with the BIAcore T200 or BIAcore S200 evaluation software using a steady state approach. To determine KD(app) towards α-L-fucose, 2-fold dilution series of lectins was used (PLL: 1.25 – 20 μM, PLL4: 0.39 – 12.5 μM; PLL5: 0.12 – 30 μM). The data were evaluated with the BIAcore T200 or BIAcore S200 evaluation software using a steady state approach (PLL5) or a single-cycle kinetics approach (PLL, PLL4). For SPR inhibition experiments on the MGMR channel, 250 nM PLL, 250 nM PLL4 or 62 nM PLL5, respectively, was used. Proteins of the given concentration were mixed with a concentration series of tested inhibitors (0.01 - 0.4 M). Proteins without an inhibitor were used as a control. The response of the lectin bound to the sugar surface at equilibrium was plotted against the concentration of inhibitor in order to determine IC50. The response in the appropriate blank channel was subtracted prior to all evaluations.

PLL4 [9] = target: T2, PLL4; experiment: SPR inhibition assay on the MGMR channel; parameters: species or system Photorhabdus laumondii subsp. laumondii TT01; conditions: inhibition of PLL4 (250 nM) binding to immobilized MGMR
Description: as §2, §3

PLL5 [10] = target: T3, PLL5; experiment: SPR inhibition assay on the MGMR channel; parameters: species or system Photorhabdus laumondii subsp. laumondii TT01; conditions: inhibition of PLL5 (62 nM) binding to immobilized MGMR
Description: as §2, §3

[11] = ITC, stoichiometry N fixed to 2
[12] = ITC, stoichiometry N fixed to 4
[13] = ITC, stoichiometry N fixed to 6
[14] = ITC, stoichiometry N fixed to 8
[15] = PLL4, stoichiometry N fixed to 2
[16] = PLL4, stoichiometry N fixed to 4
[17] = PLL4, stoichiometry N fixed to 6
[18] = PLL4, stoichiometry N fixed to 8
[19] = PLL5, stoichiometry N fixed to 2
[20] = PLL5, stoichiometry N fixed to 4
[21] = PLL5, stoichiometry N fixed to 6
[22] = PLL5, stoichiometry N fixed to 8
[23] = PLL2, stoichiometry N fixed to 2
[24] = PLL2, stoichiometry N fixed to 4
[25] = PLL2, stoichiometry N fixed to 6
[26] = PLL2, stoichiometry N fixed to 8
[27] = PLL3, stoichiometry N fixed to 2
[28] = PLL3, stoichiometry N fixed to 4
[29] = PLL3, stoichiometry N fixed to 6
[30] = PLL3, stoichiometry N fixed to 8

T1 sequence (Q7N8J0 entry or part of it): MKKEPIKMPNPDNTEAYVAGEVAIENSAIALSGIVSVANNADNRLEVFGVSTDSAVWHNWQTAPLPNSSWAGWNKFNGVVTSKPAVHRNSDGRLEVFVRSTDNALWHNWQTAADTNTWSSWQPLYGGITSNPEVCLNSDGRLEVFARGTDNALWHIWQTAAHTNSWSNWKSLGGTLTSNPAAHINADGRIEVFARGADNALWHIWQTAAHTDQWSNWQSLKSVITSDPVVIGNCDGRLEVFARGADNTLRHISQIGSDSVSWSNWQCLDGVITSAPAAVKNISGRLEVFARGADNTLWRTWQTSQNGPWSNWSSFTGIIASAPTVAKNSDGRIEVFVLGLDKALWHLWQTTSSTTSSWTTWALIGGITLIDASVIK

Row | SMILES | interaction with the sugar in ITC (in words) (PLL [1]) | KD (PLL [1]; [11]) | KD (PLL [1]; [12]) | KD (PLL [1]; [13]) | KD (PLL [1]; [14]) | KD (PLL4 [2]; [15]) | KD (PLL4 [2]; [16]) | KD (PLL4 [2]; [17]) | KD (PLL4 [2]; [18]) | interaction with the sugar in ITC (in words) (PLL4 [2]) | KD (PLL5 [3]; [19]) | KD (PLL5 [3]; [20]) | KD (PLL5 [3]; [21]) | KD (PLL5 [3]; [22]) | IC50 (PLL2 [4]; read-out: IC50) [mM] | Kd (PLL2 [6]; [24]) [mM] | Kd (PLL3 [7]; [27]) [mM] | Kd (PLL3 [7]; [28]) [mM] | Kd (PLL3 [7]; [29]) [mM] | Kd (PLL3 [7]; [30]) [mM] | also measured
1 | O=C[C@H](O)[C@@H](O)[C@@H](O)[C@H](O)CO [D-Gal, D-galactose] | did not bind these sugars significantly | No int | No int | No int | No int | No int | No int | No int | No int | did not bind these sugars significantly | No int | No int | No int | No int | > 100 | 0.4 ± 0.03 | 3 ± 0.06 | 2.7 ± 0.14 | 2.5 ± 0.13 | 2.2 ± 0.06 | interaction with the sugar in ITC (in words) (PLL5 [3]): did not bind these sugars significantly; IC50 (PLL2 [4]): not PLL2; IC50 (PLL3 [5]): inhibited only the binding of PLL3; Kd (PLL2 [6]; [23]): 0.5 ± 0.02 mM; Kd (PLL2 [6]; [25]): 0.3 ± 0.04 mM; Kd (PLL2 [6]; [26]): 0.3 ± 0.06 mM; interaction with the sugar in ITC (in words) (PLL2 [6]): interacted; interaction with the sugar in ITC (in words) (PLL3 [7]): interacted
2 | OC[C@H]1OC(O)[C@H](O)[C@@H](O)[C@@H]1O (stereo partly drawn) [D-Glc] | did not bind these sugars significantly | No int | No int | No int | No int | No int | No int | No int | No int | did not bind these sugars significantly | No int | No int | No int | No int | – | 3.6 ± 0.21 | 4 ± 0.12 | 3.6 ± 0.08 | 3.3 ± 0.07 | 3.1 ± 0.11 | interaction with the sugar in ITC (in words) (PLL5 [3]): did not bind these sugars significantly; interaction with the sugar in ITC (in words) (PLL2 [6]): interacted; interaction with the sugar in ITC (in words) (PLL3 [7]): interacted
3 | C[C@H](O)[C@@H](O)[C@@H](O)[C@H](O)C=O [L-Fuc, L-fucose] | – | No int | No int | No int | No int | – | – | – | – | – | – | – | – | – | 1.2 ± 0.04 | 2.6 ± 0.08 | 3.6 ± 0.14 | 3.3 ± 0.12 | 3.1 ± 0.1 | 2.9 ± 0.1 | IC50 (PLL [8]): 19.5 ± 7.5 mM; IC50 (PLL4 [9]): 5.7 ± 0.21 mM; IC50 (PLL5 [10]): 3.6 ± 0.13 mM; Kd (PLL4 [2]; [15]): 31.2 ± 0.95 mM; Kd (PLL4 [2]; [16]): 29.9 ± 0.9 mM; Kd (PLL4 [2]; [17]): 28.6 ± 0.89 mM; Kd (PLL4 [2]; [18]): 27.2 ± 0.86 mM; Kd (PLL5 [3]; [19]): 16.6 ± 1.02 mM; Kd (PLL5 [3]; [20]): 16 ± 1.01 mM; Kd (PLL5 [3]; [21]): 15.4 ± 1 mM; Kd (PLL5 [3]; [22]): 14.7 ± 0.99 mM; IC50 (PLL3 [5]; read-out: IC50): 2.5 ± 0.09 mM; Kd (PLL2 [6]; [23]): 2.8 ± 0.07 mM; Kd (PLL2 [6]; [25]): 2.4 ± 0.08 mM; Kd (PLL2 [6]; [26]): 2.1 ± 0.1 mM
4 | CO[C@@H]1O[C@@H](C)[C@@H](O)[C@@H](O)[C@@H]1O [αMeFuc, methyl-α-L-fucoside] | – | – | – | – | – | – | – | – | – | – | – | – | – | – | 0.1 ± 0.01 | 0.4 ± 0.02 | – | 0.7 ± 0.03 | – | – | IC50 (PLL [8]): 4 ± 1.35 mM; IC50 (PLL4 [9]): 1.4 ± 0.04 mM; IC50 (PLL5 [10]): 1.7 ± 0.13 mM; Kd (PLL [1]; [11]): 3.6 ± 0.07 mM; Kd (PLL4 [2]; [16]): 4.9 ± 0.08 mM; Kd (PLL5 [3]; [20]): 4.2 ± 0.17 mM; IC50 (PLL3 [5]; read-out: IC50): 1 ± 0.05 mM
